From ChEMBL document CHEMBL1201862, “PubChem BioAssay data set” (2004)
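Compound exposure: 48 hours, 5 concentrations, 96-well plates. Abbreviation: GI50, concentration required for 50% inhibition of growth.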 The source made the active and inactive calls. Rule as the data show it: active = GI50 up to about 1.1 µM and inactive = higher.

Columns and labels:
Experiment in all cases: growth of human tumour cells (NCI), 48 h
ACHN = tested on: ACHN
DLD-1 = tested on: DLD-1
DMS-114 = tested on: DMS-114
DMS-273 = tested on: DMS-273
HOP-92 = tested on: HOP-92
IGROV-1 = tested on: IGROV-1
KM-20L2 = tested on: KM-20L2
NCI-H460 = tested on: NCI-H460
SF-268 = tested on: SF-268
SF-539 = tested on: SF-539
SK-MEL-2 = tested on: SK-MEL-2
SK-OV-3 = tested on: SK-OV-3
SNB-78 = tested on: SNB-78
U-251 = tested on: U-251
UACC-257 = tested on: UACC-257
UACC-62 = tested on: UACC-62

| Compound | GI50 (ACHN) | GI50 (DLD-1) | GI50 (DMS-114) | GI50 (DMS-273) | GI50 (HOP-92) | GI50 (IGROV-1) | GI50 (KM-20L2) | GI50 (NCI-H460) | GI50 (SF-268) | GI50 (SF-539) | GI50 (SK-MEL-2) | GI50 (SK-OV-3) | GI50 (SNB-78) | GI50 (U-251) | GI50 (UACC-257) | GI50 (UACC-62) |
| --- | --- | --- | --- | --- | --- | --- | --- | --- | --- | --- | --- | --- | --- | --- | --- | --- |
| Clc1cc2ns[s+]c2cc1Cl | 12.4 µM (inactive) | 13.1 µM (inactive) | 29.1 µM (inactive) | 32.3 µM (inactive) | 36.1 µM (inactive) | 98.6 µM (inactive) | 14.3 µM (inactive) | 47.8 µM (inactive) | 21.1 µM (inactive) | 36.6 µM (inactive) | > 45.1 µM (inactive) | > 100 µM (inactive) | > 100 µM (inactive) | > 100 µM (inactive) | > 86.3 µM (inactive) | 5.33 µM (inactive) |
| CCOC(=O)C1(C#N)C(c2ccccc2)CC(O)(c2ccc(Cl)cc2)C(C(=O)c2ccc(Cl)cc2)C1c1ccccc1 (centres undefined) | > 100 µM (inactive) | > 100 µM (inactive) | > 100 µM (inactive) | 67.1 µM (inactive) |  | > 100 µM (inactive) | > 100 µM (inactive) | > 100 µM (inactive) | > 100 µM (inactive) |  | > 100 µM (inactive) | 38.6 µM (inactive) | 82.4 µM (inactive) | > 10 µM (inactive) | > 100 µM (inactive) | > 100 µM (inactive) |
| Cc1ccccc1NC(=O)c1nc(S)nc(N)c1-c1ccccc1C | > 100 µM (inactive) | > 100 µM (inactive) | > 100 µM (inactive) | > 100 µM (inactive) | > 100 µM (inactive) | > 100 µM (inactive) | > 100 µM (inactive) | > 100 µM (inactive) | > 100 µM (inactive) | > 100 µM (inactive) | > 100 µM (inactive) | > 100 µM (inactive) | > 100 µM (inactive) | > 100 µM (inactive) | > 100 µM (inactive) | > 100 µM (inactive) |
| COc1cc(CN[C@H]2CCc3cc(OC)c(OC)c(OC)c3-c3ccc(SC)c(=O)cc32)cc(OC)c1 | 0.0439 µM (active) | 0.0411 µM (active) | 0.0222 µM (active) | 0.0341 µM (active) | 0.187 µM (active) | 0.0403 µM (active) | 0.0206 µM (active) | 0.0361 µM (active) | 0.043 µM (active) | 0.0206 µM (active) | 0.0463 µM (active) | 0.0284 µM (active) | 0.0538 µM (active) | 0.0324 µM (active) | 0.0566 µM (active) | 0.0238 µM (active) |
| Cc1ccc(Oc2ccc(C(=O)c3cccc(C(=O)c4ccc(Oc5ccc(C)cc5)cc4)n3)cc2)cc1 | > 100 µM (inactive) | > 100 µM (inactive) | > 100 µM (inactive) | > 100 µM (inactive) | > 100 µM (inactive) | > 100 µM (inactive) | > 100 µM (inactive) | > 100 µM (inactive) | > 100 µM (inactive) | > 100 µM (inactive) | > 100 µM (inactive) | > 100 µM (inactive) | > 100 µM (inactive) | > 100 µM (inactive) | > 100 µM (inactive) | > 100 µM (inactive) |
| CC1=C(C(=O)O)N2C(=O)[C@@H](NC(=O)C(c3ccc(O)cc3)N3CSC(=S)N(C(C)C)C3)C2SC1 (some centres undefined) | > 100 µM (inactive) | > 100 µM (inactive) | > 100 µM (inactive) | > 100 µM (inactive) | > 100 µM (inactive) | > 100 µM (inactive) | > 100 µM (inactive) | > 100 µM (inactive) | > 100 µM (inactive) | > 100 µM (inactive) | > 100 µM (inactive) | > 100 µM (inactive) | > 100 µM (inactive) | > 100 µM (inactive) | > 100 µM (inactive) | > 100 µM (inactive) |
| CC(C)=CC(=O)N1CCN(C(=O)C=C(C)C)CC1 | > 100 µM (inactive) | > 100 µM (inactive) | > 100 µM (inactive) | > 100 µM (inactive) | > 100 µM (inactive) | > 100 µM (inactive) | > 100 µM (inactive) | > 100 µM (inactive) | > 100 µM (inactive) | > 100 µM (inactive) |  | > 100 µM (inactive) | > 100 µM (inactive) | > 100 µM (inactive) | > 100 µM (inactive) | > 100 µM (inactive) |
| O=C1C2C3CC(C4C5C=CC(C5)C34)C2C2C3CC(C12)C1C2C=CC(C2)C31 (centres undefined) | > 100 µM (inactive) | > 100 µM (inactive) | > 100 µM (inactive) | > 100 µM (inactive) | > 100 µM (inactive) | > 100 µM (inactive) | > 100 µM (inactive) | 26.8 µM (inactive) | 90.8 µM (inactive) | > 100 µM (inactive) | > 100 µM (inactive) | > 100 µM (inactive) | > 100 µM (inactive) | > 100 µM (inactive) | > 100 µM (inactive) | > 100 µM (inactive) |
| CN(C)CC/C(=N\Nc1ccc(Cl)c(Cl)c1)c1ccccc1 | 1.69 µM (inactive) | 3.39 µM (inactive) | 1.83 µM (inactive) | 1.75 µM (inactive) |  | 2.18 µM (inactive) | 1.74 µM (inactive) | 1.85 µM (inactive) | 1.79 µM (inactive) | 1.82 µM (inactive) |  | 3.72 µM (inactive) | 2.4 µM (inactive) | 1.78 µM (inactive) | 3 µM (inactive) | 1.95 µM (inactive) |
